# Laboratory results: US10226451B2, “Substituted bicyclic compounds as bromodomain inhibitors” (ZENITH EPIGENETICS LTD, priority 2013, dated 2019)
# pIC50: −log10 of the molar value.
# Experiments:
# [1] = target: T1, Brd4 bromodomain 1 (BRD4(1)) (Homo sapiens, UniProt O60885); test: Inhibition of tetra-acetylated histone H4 binding to Brd4 bromodomain 1 (HTRF/FRET); details: tetra-acetylated histone H4 peptide, His-tagged bromodomain 200 nM, 2 h
# T1 construct: made in house; host or cells: E. coli BL21(DE3)
# Protocol: Proteins were cloned and overexpressed with a N-terminal 6×His tag, then purified by nickel affinity followed by size exclusion chromatography. Briefly, E. coli BL21(DE3) cells were transformed with a recombinant expression vector encoding N-terminally Nickel affinity tagged bromodomains from Brd2, Brd3, Brd4. Cell cultures were incubated at 37° C. with shaking to the appropriate density and induced overnight with IPTG. The supernatant of lysed cells was loaded onto Ni-IDA column for purification. Eluted protein was pooled, concentrated and further purified by size exclusion chromatography. Fractions representing monomeric protein were pooled, concentrated, aliquoted, and frozen at −80° C. for use in subsequent experiments.
# Binding of tetra-acetylated histone H4 and BET bromodomains was confirmed by a Homogenous Time Resolved Fluorescence Resonance Energy Transfer (HTRF®) method. N-terminally His-tagged bromodomains (200 nM) and biotinylated tetra-acetylated histone H4 peptide (25-50 nM, Millipore) were incubated in the presence of Europium Cryptate-labeled streptavidin (Cisbio Cat. #610SAKLB) and XL665-labeled monoclonal anti-His antibody (Cisbio Cat. #61HISXLB) in a white 96 well microtiter plate (Greiner). For inhibition assays, serially diluted test compound was added to these reactions in a 0.2% final concentration of DMSO. Duplicate wells were used for each concentration tested. Final buffer concentrations were 30 mM HEPES pH 7.4, 30 mM NaCl, 0.3 mM CHAPS, 20 mM phosphate pH 7.0, 320 mM KF, 0.08% BSA. After a 2 h incubation at room temperature, fluorescence was measured at 665 and 620 nm with a SynergyH4 plate reader (Biotek). The binding inhibitory activity was shown by a decrease in 665 nm relative to 620 nm fluorescence. IC50 values were determined from a dose response curve.
# [2] = tested on: c-myc in Human AML MV4-11 cells; test: Inhibition of c-MYC expression (mRNA, real-time PCR) in MV4-11 cells; assay type: cell-based; details: 3 h, mRNA by real-time PCR
# Protocol: MV4-11 cells (CRL-9591) were plated at a density of 2.5×10^4 cells per well in 96 well U-bottom plates and treated with increasing concentrations of test compound or DMSO (0.1%) in IMDM media containing 10% FBS and penicillin/streptomycin, and incubated for 3 h at 37° C. Triplicate wells were used for each concentration. Cells were pelleted by centrifugation and harvested using the mRNA Catcher PLUS kit according to manufacturer's instructions. The eluted mRNA isolated was then used in a one-step quantitative real-time PCR reaction, using components of the RNA UltraSense™ One-Step Kit (Life Technologies) together with Applied Biosystems TaqMan® primer-probes for cMYC and Cyclophilin. Real-time PCR plates were run on a ViiA™7 real time PCR machine (Applied Biosystems), data was analyzed, normalizing the Ct values for hMYC to an internal control, prior to determining the fold expression of each sample, relative to the control.
# [3] = tested on: hIL-6 mRNA in U937 cells; test: Inhibition of hIL-6 mRNA transcription in LPS-stimulated U937 cells; assay type: cell-based; details: Homo sapiens, U-937, PMA-differentiated U937 cells, LPS 1 ug/mL, 3 h, read-out: IL-6 activity
# Protocol: In this example, hIL-6 mRNA in tissue culture cells were quantitated to measure the transcriptional inhibition of hIL-6 when treated with a compound of the present disclosure.
# Human leukemic monocyte lymphoma U937 cells (CRL-1593.2) were plated at a density of 3.2×10^4 cells per well in a 96-well plate in 100 μL RPMI-1640 containing 10% FBS and penicillin/streptomycin, and differentiated into macrophages for 3 days in 60 ng/mL PMA ([…]) at 37° C. in 5% CO2 prior to the addition of compound. The cells were pretreated for 1 h with increasing concentrations of test compound in 0.1% DMSO prior to stimulation with 1 ug/mL lipopolysaccharide from Escherichia coli. Triplicate wells were used for each concentration. The cells were incubated at 37° C., 5% CO2 for 3 h before the cells were harvested. At time of harvest, media was removed and cells were rinsed in 200 μL PBS. Cells were harvested using the mRNA Catcher PLUS kit according to manufacturer's instructions. The eluted mRNA was then used in a one-step quantitative real-time PCR reaction using components of the RNA UltraSense™ One-Step Kit (Life Technologies) together with Applied Biosystems TaqMan® primer-probes for hIL-6 and Cyclophilin. Real-time PCR plates were run on a ViiA™7 real time PCR machine (Applied Biosystems), data was analyzed, normalizing the Ct values for hIL-6 to an internal control, prior to determining the fold expression of each sample, relative to the control.
# [4] = tested on: Human AML MV-4-11 cells; test: Inhibition of cell proliferation in MV4-11 cells (CellTiter Aqueous One); assay type: cell-based; details: 72 h
# Protocol: In this example, cell titer in MV4-11 cells were quantitated to measure the inhibition of proliferation when treated with a compound of the present disclosure.
# MV4-11 cells (CRL-9591) were plated at a density of 5×10^4 cells per well in 96 well flat bottom plates and treated with increasing concentrations of test compound or DMSO (0.1%) in IMDM media containing 10% FBS and penicillin/streptomycin. Triplicate wells were used for each concentration and a well containing only media was used as a control. Plates were incubated at 37° C., 5% CO2 for 72 h before adding 20 μL of the CellTiter Aqueous One Solution (Promega) to each well and incubated at 37° C., 5% CO2 for an additional 3-4 h. The absorbance was read at 490 nm in a spectrophotometer and the percentage of cell titer relative to DMSO-treated cells was calculated after correcting for background by subtracting the blank well's signal. IC50 values were calculated using the Graph Pad Prism software.
Structure (SMILES),pIC50 [1],pIC50 [2],pIC50 [3],pIC50 [4]
"Cc1noc(C)c1-c1cc(-c2c(C)noc2C)c2oc(=O)[nH]c2c1 [Example Compound 3, 5,7-bis(3,5-dimethylisoxazol-4-yl)benzo[d]oxazol-2(3H)-one]",≥ 6.52,4.52 to 5.52,5.52 to 6.52,4.52 to 5.52
"Cc1ccncc1-c1cc(-c2c(C)noc2C)cc2[nH]c(=O)n(C)c12 [Example Compound 6, 5-(3,5-dimethylisoxazol-4-yl)-1-methyl-7-(4-methylpyridin-3-yl)-1H-benzo[d]imidazol-2(3H)-one]",≥ 6.52,≥ 6.52,≥ 6.52,5.52 to 6.52
"Cc1noc(C)c1-c1cc(-c2cccnc2C(F)(F)F)c2c(c1)[nH]c(=O)n2C [Example Compound 8, 5-(3,5-dimethylisoxazol-4-yl)-1-methyl-7-(2-(trifluoromethyl)pyridin-3-yl)-1H-benzo[d]imidazol-2(3H)-one]",≥ 6.52,5.52 to 6.52,5.52 to 6.52,5.52 to 6.52
"COc1ccc(C)cc1-c1cc(-c2c(C)noc2C)cc2[nH]c(=O)n(C)c12 [Example Compound 12, 5-(3,5-dimethylisoxazol-4-yl)-7-(2-methoxy-5-methylphenyl)-1-methyl-1H-benzo[d]imidazol-2(3H)-one]",≥ 6.52,–,5.52 to 6.52,5.52 to 6.52
"Cc1noc(C)c1-c1cc(-c2cccc(C#N)c2C)c2c(c1)[nH]c(=O)n2C [Example Compound 14, 3-(6-(3,5-dimethylisoxazol-4-yl)-3-methyl-2-oxo-2,3-dihydro-1H-benzo[d]imidazol-4-yl)-2-methylbenzonitrile]",≥ 6.52,≥ 6.52,–,5.52 to 6.52
"Cc1noc(C)c1-c1cc(-c2c(C)noc2C)c2c(c1)n(C)c(=O)n2C [Example Compound 15, 4,6-bis(3,5-dimethylisoxazol-4-yl)-1,3-dimethyl-1H-benzo[d]imidazol-2(3H)-one]",≥ 6.52,5.52 to 6.52,–,5.52 to 6.52
"Cc1ccc(C#N)cc1-c1cc(-c2c(C)noc2C)cc2[nH]c(=O)n(C)c12 [Example Compound 16, 3-(6-(3,5-dimethylisoxazol-4-yl)-3-methyl-2-oxo-2,3-dihydro-1H-benzo[d]imidazol-4-yl)-4-methylbenzonitrile]",≥ 6.52,≥ 6.52,5.52 to 6.52,5.52 to 6.52
"COc1ccncc1-c1cc(-c2c(C)noc2C)cc2[nH]c(=O)n(C)c12 [Example Compound 17, 5-(3,5-dimethylisoxazol-4-yl)-7-(4-methoxypyridin-3-yl)-1-methyl-1H-benzo[d]imidazol-2(3H)-one]",≥ 6.52,≥ 6.52,–,5.52 to 6.52
"Cc1ccc(Cl)cc1-c1cc(-c2c(C)noc2C)cc2[nH]c(=O)n(C)c12 [Example Compound 19, 7-(5-chloro-2-methylphenyl)-5-(3,5-dimethylisoxazol-4-yl)-1-methyl-1H-benzo[d]imidazol-2(3H)-one]",≥ 6.52,≥ 6.52,5.52 to 6.52,5.52 to 6.52
"Cc1noc(C)c1-c1cc(-c2c(C)nn(C)c2C)c2[nH]c(=S)[nH]c2c1 [Example Compound 23, 6-(3,5-dimethylisoxazol-4-yl)-4-(1,3,5-trimethyl-1H-pyrazol-4-yl)-1H-benzo[d]imidazole-2(3H)-thione]",≥ 6.52,≥ 6.52,≥ 6.52,≥ 6.52
"Cc1ccncc1-c1cc(-c2c(C)noc2C)cc2[nH]c(=S)[nH]c12 [Example Compound 24, 6-(3,5-dimethylisoxazol-4-yl)-4-(4-methylpyridin-3-yl)-1H-benzo[d]imidazole-2-thiol]",≥ 6.52,≥ 6.52,–,5.52 to 6.52
"Cc1ccc(C#N)cc1-c1cc(-c2c(C)noc2C)cc2[nH]c(=S)[nH]c12 [Example Compound 25, 3-(6-(3,5-dimethylisoxazol-4-yl)-2-thioxo-2,3-dihydro-1H-benzo[d]imidazol-4-yl)-4-methylbenzonitrile]",≥ 6.52,≥ 6.52,–,5.52 to 6.52
"Cc1noc(C)c1-c1cc(-c2c(Cl)cncc2Cl)c2c(c1)[nH]c(=O)n2C [Example Compound 35, 7-(3,5-dichloropyridin-4-yl)-5-(3,5-dimethylisoxazol-4-yl)-1-methyl-1H-benzo[d]imidazol-2(3H)-one]",≥ 6.52,–,5.52 to 6.52,–
"Cc1noc(C)c1-c1cc(-c2cnc3ccccc3c2)c2c(c1)[nH]c(=O)n2C [Example Compound 36, 5-(3,5-dimethylisoxazol-4-yl)-1-methyl-7-(quinolin-3-yl)-1H-benzo[d]imidazol-2(3H)-one]",5.52 to 6.52,5.52 to 6.52,–,5.52 to 6.52
"Cc1noc(C)c1-c1cc(-c2ccccc2Cl)c2c(c1)[nH]c(=O)n2C [Example Compound 37, 7-(2-chlorophenyl)-5-(3,5-dimethylisoxazol-4-yl)-1-methyl-1H-benzo[d]imidazol-2(3H)-one]",5.52 to 6.52,5.52 to 6.52,–,5.52 to 6.52
"COc1ccc(F)c(-c2cc(-c3c(C)noc3C)cc3[nH]c(=O)n(C)c23)c1 [Example Compound 41, 5-(3,5-dimethylisoxazol-4-yl)-7-(2-fluoro-5-methoxyphenyl)-1-methyl-1H-benzo[d]imidazol-2(3H)-one]",≥ 6.52,–,–,–
"COc1ccc(Cl)cc1-c1cc(-c2c(C)noc2C)cc2[nH]c(=O)n(C)c12 [Example Compound 42, 7-(5-chloro-2-methoxyphenyl)-5-(3,5-dimethylisoxazol-4-yl)-1-methyl-1H-benzo[d]imidazol-2(3H)-one]",≥ 6.52,–,–,–
"COc1cccc(-c2cc(-c3c(C)noc3C)cc3[nH]c(=O)n(C)c23)c1F [Example Compound 43, 5-(3,5-dimethylisoxazol-4-yl)-7-(2-fluoro-3-methoxyphenyl)-1-methyl-1H-benzo[d]imidazol-2(3H)-one]",5.52 to 6.52,–,–,–
"Cc1noc(C)c1-c1cc(-c2ccc3ocnc3c2)c2c(c1)[nH]c(=O)n2C [Example Compound 46, 7-(benzo[d]oxazol-5-yl)-5-(3,5-dimethylisoxazol-4-yl)-1-methyl-1H-benzo[d]imidazol-2(3H)-one]",≥ 6.52,–,–,–
